Assay results: ChEMBL document CHEMBL5316343, “Design, Synthesis, and Biological Evaluation of a Potent Dual EZH2-BRD4 Inhibitor for the Treatment of Some Solid Tumors” (J Med Chem, 2023)
The source made the active and inactive calls. No cut-off for these calls is given here.

Columns and labels:
A549 = test: Antiproliferative activity against human A549 cells assessed as inhibition of cell proliferation incubated for 6 days by CCK8 assay; assay type: functional, cell-based; conditions: time 6.0 day
PLC-PRF-5 = test: Antiproliferative activity against human PLC-PRF-5 cells assessed as inhibition of cell proliferation incubated for 6 days by CCK8 assay; assay type: functional, cell-based; conditions: time 6.0 day
MDA-MB-231 [1] = test: Induction of apoptosis in human MDA-MB-231 cells assessed as viable cells at 1 uM incubated for 48 hrs by Annexin V-FITC/PI staining based flow cytometric analysis (reference value: 97.63%); assay type: functional; conditions: read-out: Activity
BXPC-3 [2] = test: Induction of apoptosis in human BXPC-3 cells assessed as early apoptotic cells at 5 uM incubated for 48 hrs by Annexin V-FITC/PI staining based flow cytometric analysis (reference value: 3.28 %); assay type: functional
[3] = AUC(0 to infinity) in ICR mouse at 60 mg/kg, ip measured upto 24 hrs by LC-MS/MS analysis; assay type: ADME, organism-based; parameters: time < 24 hrs, dose 60 mg/kg, route ip; conditions: in vivo
[4] = Protein binding in mouse plasma assessed as bound fraction at 2 uM incubated for 5 hrs by equilibrium based LC-MS/MS analysis; assay type: ADME, cell-free; conditions: read-out: PPB (converted)
[5] = AUC(0 to t) in ICR mouse at 60 mg/kg, ip measured upto 24 hrs by LC-MS/MS analysis; assay type: ADME, organism-based; parameters: time < 24 hrs, dose 60 mg/kg, route ip; conditions: in vivo
BXPC-3 [6] = test: Induction of apoptosis in human BXPC-3 cells assessed as late apoptotic cells at 2.5 uM incubated for 48 hrs by Annexin V-FITC/PI staining based flow cytometric analysis (reference value: 4.38 %); assay type: functional
MDA-MB-231 [7] = test: Antiproliferative activity against human MDA-MB-231 cells assessed as inhibition of cell proliferation incubated for 6 days by CCK8 assay; assay type: functional, cell-based; conditions: time 6.0 day
BXPC-3 [8] = test: Induction of apoptosis in human BXPC-3 cells assessed as early apoptotic cells at 1 uM incubated for 48 hrs by Annexin V-FITC/PI staining based flow cytometric analysis (reference value: 3.28 %); assay type: functional
MDA-MB-231 [9] = test: Inhibition of cell proliferation in human MDA-MB-231 cells assessed as decrease in c-Myc mRNA level at 5 uM incubated for 48 hrs by qRT-PCR analysis; assay type: functional, cell-based
BXPC-3 [10] = test: Inhibition of cell proliferation in human BXPC-3 cells assessed as decrease in c-Myc protein level at 5 uM incubated for 48 hrs by IHC analysis; assay type: functional, cell-based
MDA-MB-231 [11] = test: Induction of apoptosis in human MDA-MB-231 cells assessed as viable cells at 2.5 uM incubated for 48 hrs by Annexin V-FITC/PI staining based flow cytometric analysis (reference value: 97.63%); assay type: functional; conditions: read-out: Activity
BXPC-3 [12] = test: Inhibition of cell proliferation in human BXPC-3 cells assessed as decrease in c-Myc mRNA level at 5 uM incubated for 48 hrs by qRT-PCR analysis; assay type: functional, cell-based
[13] = biological target: Bromodomain-containing protein 4 (Homo sapiens, UniProt O60885); test: Inhibition of BRD4 (unknown origin) by HTRF analysis
PANC-1 = test: Antiproliferative activity against human PANC-1 cells assessed as inhibition of cell proliferation incubated for 6 days by CCK8 assay; assay type: functional, cell-based; conditions: time 6.0 day
[14] = biological target: Bromodomain testis-specific protein (Homo sapiens, UniProt Q58F21); test: Inhibition of BRDT-BD1 (unknown origin) by HTRF analysis
MDA-MB-231 [15] = test: Inhibition of cell proliferation in human MDA-MB-231 cells assessed as decrease in c-Myc protein level at 5 uM incubated for 48 hrs by IHC analysis; assay type: functional, cell-based
MDA-MB-231 [16] = test: Induction of apoptosis in human MDA-MB-231 cells assessed as necrotic cells at 5 uM incubated for 48 hrs by Annexin V-FITC/PI staining based flow cytometric analysis (reference value: 0.63%); assay type: functional
MDA-MB-231 [17] = test: Induction of apoptosis in human MDA-MB-231 cells assessed as viable cells at 5 uM incubated for 48 hrs by Annexin V-FITC/PI staining based flow cytometric analysis (reference value: 97.63%); assay type: functional; conditions: read-out: Activity
[18] = biological target: Bromodomain-containing protein 2 (Homo sapiens, UniProt P25440); test: Inhibition of BRD2-BD1/2 (unknown origin) by HTRF analysis
Chain of Bromodomain-containing protein 2 (P25440 whole entry): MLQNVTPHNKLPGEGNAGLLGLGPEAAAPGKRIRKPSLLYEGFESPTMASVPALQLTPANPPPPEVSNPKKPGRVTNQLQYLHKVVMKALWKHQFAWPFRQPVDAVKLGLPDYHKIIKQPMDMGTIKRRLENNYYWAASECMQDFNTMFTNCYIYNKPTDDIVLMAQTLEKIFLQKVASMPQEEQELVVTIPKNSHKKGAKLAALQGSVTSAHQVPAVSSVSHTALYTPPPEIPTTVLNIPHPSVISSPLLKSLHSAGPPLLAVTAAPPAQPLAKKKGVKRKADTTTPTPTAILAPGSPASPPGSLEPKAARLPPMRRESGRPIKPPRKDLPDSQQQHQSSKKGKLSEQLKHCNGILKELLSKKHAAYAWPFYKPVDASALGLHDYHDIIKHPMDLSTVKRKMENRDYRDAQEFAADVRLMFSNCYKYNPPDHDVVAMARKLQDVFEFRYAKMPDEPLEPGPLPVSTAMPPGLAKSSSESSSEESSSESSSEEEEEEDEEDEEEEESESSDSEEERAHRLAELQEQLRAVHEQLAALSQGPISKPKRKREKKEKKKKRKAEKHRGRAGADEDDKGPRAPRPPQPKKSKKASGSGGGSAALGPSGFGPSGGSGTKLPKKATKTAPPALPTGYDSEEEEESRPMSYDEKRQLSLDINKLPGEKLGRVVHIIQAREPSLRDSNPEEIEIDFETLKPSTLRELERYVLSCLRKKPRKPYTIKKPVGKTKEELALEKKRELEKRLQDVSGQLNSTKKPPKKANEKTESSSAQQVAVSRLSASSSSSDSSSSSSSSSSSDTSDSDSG

T-24 = test: Antiproliferative activity against human T24 cells assessed as inhibition of cell proliferation incubated for 6 days by CCK8 assay; assay type: functional, cell-based; conditions: time 6.0 day
[19] = MRT(0 to infinity) in ICR mouse at 60 mg/kg, ip measured upto 24 hrs by LC-MS/MS analysis; assay type: ADME, organism-based; conditions: in vivo
BXPC-3 [20] = test: Induction of apoptosis in human BXPC-3 cells assessed as viable cells at 5 uM incubated for 48 hrs by Annexin V-FITC/PI staining based flow cytometric analysis (reference value: 90.70%); assay type: functional; conditions: read-out: Activity
[21] = biological target: T1, Histone-lysine N-methyltransferase EZH2 (Homo sapiens, UniProt Q15910); test: Inhibition of EZH2 (unknown origin) by radiometric assay
Target sequence in this assay (Q15910 whole entry): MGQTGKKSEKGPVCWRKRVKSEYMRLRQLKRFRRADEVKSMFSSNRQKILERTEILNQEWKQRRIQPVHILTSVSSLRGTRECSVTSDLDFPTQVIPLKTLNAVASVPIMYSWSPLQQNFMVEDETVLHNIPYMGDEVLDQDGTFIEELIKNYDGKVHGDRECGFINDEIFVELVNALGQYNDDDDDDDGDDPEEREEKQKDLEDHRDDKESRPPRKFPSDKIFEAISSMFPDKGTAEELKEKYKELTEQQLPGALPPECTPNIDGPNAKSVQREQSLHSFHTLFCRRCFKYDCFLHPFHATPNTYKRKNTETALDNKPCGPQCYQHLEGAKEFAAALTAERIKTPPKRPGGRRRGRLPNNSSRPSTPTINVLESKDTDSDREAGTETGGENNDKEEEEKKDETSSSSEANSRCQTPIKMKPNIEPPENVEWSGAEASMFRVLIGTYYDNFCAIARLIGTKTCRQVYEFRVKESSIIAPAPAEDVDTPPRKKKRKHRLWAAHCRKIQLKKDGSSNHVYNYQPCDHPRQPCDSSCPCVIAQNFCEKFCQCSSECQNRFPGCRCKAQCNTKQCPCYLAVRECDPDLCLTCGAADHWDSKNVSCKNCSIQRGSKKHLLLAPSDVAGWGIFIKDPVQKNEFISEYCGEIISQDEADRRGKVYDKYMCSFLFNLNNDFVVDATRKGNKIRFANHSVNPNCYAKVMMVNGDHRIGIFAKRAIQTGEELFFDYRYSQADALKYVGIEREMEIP

BXPC-3 [22] = test: Induction of apoptosis in human BXPC-3 cells assessed as necrotic cells at 1 uM incubated for 48 hrs by Annexin V-FITC/PI staining based flow cytometric analysis (reference value: 1.65 %); assay type: functional
BXPC-3 [23] = test: Antitumor activity against human BXPC-3 cells xenografted in Balb/c nude mouse assessed as reduction in tumor growth at 30 mg/kg, ip administered daily for 30 days; assay type: functional, organism-based; conditions: time 30.0 day
MDA-MB-231 [24] = test: Induction of apoptosis in human MDA-MB-231 cells assessed as early apoptotic cells at 2.5 uM incubated for 48 hrs by Annexin V-FITC/PI staining based flow cytometric analysis (reference value: 0.69%); assay type: functional
MDA-MB-231 [25] = test: Induction of apoptosis in human MDA-MB-231 cells assessed as late apoptotic cells at 1 uM incubated for 48 hrs by Annexin V-FITC/PI staining based flow cytometric analysis (reference value: 1.06%); assay type: functional
95-D = test: Antiproliferative activity against human 95-D cells assessed as inhibition of cell proliferation incubated for 6 days by CCK8 assay; assay type: functional, cell-based; conditions: time 6.0 day
Mus musculus = test: In vivo inhibition of EZH2 in Balb/c nude mouse xenografted with human BXPC-3 cells assessed as reduction in H3K27me3 level in tumor at 60 mg/kg, ip administered daily for 30 days by IHC analysis; assay type: functional, organism-based; conditions: time 30.0 day
MDA-MB-231 [26] = test: Induction of apoptosis in human MDA-MB-231 cells assessed as early apoptotic cells at 1 uM incubated for 48 hrs by Annexin V-FITC/PI staining based flow cytometric analysis (reference value: 0.69%); assay type: functional
BXPC-3 [27] = test: Induction of apoptosis in human BXPC-3 cells assessed as early apoptotic cells at 2.5 uM incubated for 48 hrs by Annexin V-FITC/PI staining based flow cytometric analysis (reference value: 3.28 %); assay type: functional
[28] = biological target: T1, Histone-lysine N-methyltransferase EZH2; test: Inhibition of EZH2 in human MDA-MB-231 cells assessed as decrease in H3K27me3 level at 5 uM by fluorescence based analysis; assay type: cell-based
Target sequence in this assay (Q15910 whole entry, looked up): as the sequence (Q15910 whole entry) above

[29] = Cmax in ICR mouse at 60 mg/kg, ip measured upto 24 hrs by LC-MS/MS analysis; assay type: ADME, organism-based; parameters: time < 24 hrs, dose 60 mg/kg, route ip; conditions: in vivo
[30] = biological target: T1, Histone-lysine N-methyltransferase EZH2; test: Inhibition of EZH2 in human MDA-MB-231 cells assessed as increase in H3K27ac level at 5 uM by fluorescence based analysis; assay type: cell-based
Target sequence in this assay (Q15910 whole entry, looked up): as the sequence (Q15910 whole entry) above

[31] = Toxicity in Balb/c nude mouse xenografted with human BXPC-3 cells assessed as effect on body weight at 30 to 60 mg/kg, ip administered daily for 30 days; assay type: organism-based; conditions: in vivo, 720 h, dose 30-60 mg/kg, time 30 day

For `CCC(C)n1ccc2c(C(=O)NCc3c(C)cc(C)[nH]c3=O)cc(-c3cn(C)c(=O)c4[nH]ccc34)cc21` (configuration not stated), the Activity (A549) was “Active”, the Activity (PLC-PRF-5) was “Active” and the viability at 1 µM (MDA-MB-231 [1]) was 94.8%. For the same compound, the Activity (BXPC-3 [2]) was 10.73%, the AUC(0-inf) [3] was 2000 ng·h/mL and the fraction unbound at 5 h, 2 µM [4] was 0.009. The AUC(0-t) at 24 h [5] was 1820 ng·h/mL, the Activity (BXPC-3 [6]) was 16.95% and the Activity (MDA-MB-231 [7]) was “Active”. The Activity (BXPC-3 [8]) was 6.84%, the inhibition (MDA-MB-231 [9]) was “Active” and the inhibition (BXPC-3 [10]) was “Active”. For the same compound, the viability at 2.5 µM (MDA-MB-231 [11]) was 87.8%, the inhibition (BXPC-3 [12]) was “Active” and the IC50 [13] was 147 nM. The Activity (PANC-1) was “Active”, the IC50 [14] was 35 nM and the inhibition (MDA-MB-231 [15]) was “Active”. The Activity (MDA-MB-231 [16]) was 1.91%, the viability at 5 µM (MDA-MB-231 [17]) was 81.1% and the IC50 [18] was 31 nM. The Activity (T-24) was “Active”, the MRT inf [19] was 6.94 h and the viability at 5 µM (BXPC-3 [20]) was 62.1%. For the same compound, the IC50 [21] was 2.3 nM, the Activity (BXPC-3 [22]) was 2.94% and the Activity (BXPC-3 [23]) was “inactive”. For the same compound, the Activity (MDA-MB-231 [24]) was 8.53%, the Activity (MDA-MB-231 [25]) was 1.36% and the Activity (95-D) was “Active”. The inhibition (Mus musculus) was “Active”, the Activity (MDA-MB-231 [26]) was 2.87% and the Activity (BXPC-3 [27]) was 9.2%. The inhibition [28] was “Active”, the Cmax [29] was 2960 ng/mL and the inhibition [30] was “Active”. For the same compound, the Activity [31] was “Non-Toxic”.
